# From ChEMBL document CHEMBL1133963, “Furans with basic side chains: synthesis and biological evaluation of a novel series of antagonists with selectivity for the estrogen receptor alpha” (Bioorg Med Chem Lett, 2001)
# Columns and labels:
# Estrogen receptor beta [1] = molecular target: T1, Estrogen receptor beta (Homo sapiens, UniProt Q92731); experiment: Displacement of [3H]estradiol from Estrogen receptor beta
# Estrogen receptor [2] = molecular target: T2, Estrogen receptor (Homo sapiens, UniProt P03372); experiment: Displacement of [3H]estradiol from Estrogen receptor alpha
# T2 sequence (P03372 whole entry): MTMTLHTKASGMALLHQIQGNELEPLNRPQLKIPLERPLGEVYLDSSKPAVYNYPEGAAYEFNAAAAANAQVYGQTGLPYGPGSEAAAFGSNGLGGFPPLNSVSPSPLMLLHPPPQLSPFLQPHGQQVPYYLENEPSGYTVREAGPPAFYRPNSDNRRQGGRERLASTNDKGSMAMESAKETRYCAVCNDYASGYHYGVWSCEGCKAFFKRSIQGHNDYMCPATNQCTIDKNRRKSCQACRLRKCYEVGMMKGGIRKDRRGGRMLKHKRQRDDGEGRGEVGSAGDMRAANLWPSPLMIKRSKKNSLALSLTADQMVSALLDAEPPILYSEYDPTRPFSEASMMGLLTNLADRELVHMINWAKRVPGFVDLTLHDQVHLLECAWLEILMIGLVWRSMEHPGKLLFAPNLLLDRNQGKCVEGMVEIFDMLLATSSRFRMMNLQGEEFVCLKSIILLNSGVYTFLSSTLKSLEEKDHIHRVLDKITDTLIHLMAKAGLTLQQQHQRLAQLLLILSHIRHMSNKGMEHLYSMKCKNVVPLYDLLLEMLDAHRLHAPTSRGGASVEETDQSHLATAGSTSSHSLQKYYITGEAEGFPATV
# Estrogen receptor beta [3] = molecular target: T1, Estrogen receptor beta; experiment: Inhibitory activity against Estrogen receptor beta
# Estrogen receptor [4] = molecular target: T2, Estrogen receptor; experiment: Inhibitory activity against Estrogen receptor alpha
# T1 sequence (Q92731 whole entry): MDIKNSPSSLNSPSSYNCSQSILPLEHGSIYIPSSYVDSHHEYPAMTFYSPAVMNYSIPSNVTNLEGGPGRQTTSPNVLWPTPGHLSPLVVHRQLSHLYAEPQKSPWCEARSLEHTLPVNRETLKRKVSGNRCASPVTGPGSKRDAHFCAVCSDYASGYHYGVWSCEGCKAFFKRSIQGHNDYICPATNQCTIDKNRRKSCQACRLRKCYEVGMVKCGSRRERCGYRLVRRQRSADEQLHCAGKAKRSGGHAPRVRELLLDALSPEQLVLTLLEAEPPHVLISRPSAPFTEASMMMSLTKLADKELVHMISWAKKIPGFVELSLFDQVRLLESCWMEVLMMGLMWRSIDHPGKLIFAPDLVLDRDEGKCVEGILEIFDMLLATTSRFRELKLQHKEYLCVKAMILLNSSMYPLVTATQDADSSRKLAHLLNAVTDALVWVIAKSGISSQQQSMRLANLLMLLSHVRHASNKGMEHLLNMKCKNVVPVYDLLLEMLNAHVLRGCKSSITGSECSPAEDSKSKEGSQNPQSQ
RBA (Estrogen receptor beta [1]) [%],RBA (Estrogen receptor [2]) [%],IC50 (Estrogen receptor beta [3]) [nM],IC50 (Estrogen receptor [4]) [nM],SMILES
20,60,–,–,CCc1c(-c2ccccc2)oc(-c2ccc(O)cc2)c1-c1ccc(OCCN2CCCCC2)cc1
0.06,0.36,–,–,CCc1c(-c2ccc(OCCN3CCCCC3)cc2)oc(-c2ccc(O)cc2)c1-c1ccc(O)cc1
4,34,–,–,CCCc1c(-c2ccc(O)cc2)oc(-c2ccc(O)cc2)c1-c1ccc(OCCN2CCCCC2)cc1
0.47,32,–,–,Cc1c(-c2ccc(O)cc2)oc(-c2ccc(O)cc2)c1-c1ccc(OCCN2CCCCC2)cc1
3.1,75,480,65,CCc1c(-c2ccc(O)cc2)oc(-c2ccc(O)cc2)c1-c1ccc(OCCN2CCCCC2)cc1

SMILES,RBA (Estrogen receptor beta [1]) [%],RBA (Estrogen receptor [2]) [%],IC50 (Estrogen receptor beta [3]) [nM],IC50 (Estrogen receptor [4]) [nM]
CCc1c(-c2ccc(O)cc2)oc(-c2ccc(O)cc2)c1-c1ccc(OC)cc1,0.91,2.5,–,–
CCc1c(-c2ccc(O)cc2)oc(-c2ccccc2)c1-c1ccc(OCCN2CCCCC2)cc1,0.43,3.8,–,–
